The source of these data is paper doi:10.1101/615575v1 (biorxiv, 2019).

The test has as its target PdtaS (PdtaS-EGFP; mtPdtaS; Rv3220c) (Mycobacterium tuberculosis, UniProt P9WGL5). The experiment in a line: biochemical.

PdtaS (PdtaS-EGFP; mtPdtaS; Rv3220c), sequence (P9WGL5 whole entry): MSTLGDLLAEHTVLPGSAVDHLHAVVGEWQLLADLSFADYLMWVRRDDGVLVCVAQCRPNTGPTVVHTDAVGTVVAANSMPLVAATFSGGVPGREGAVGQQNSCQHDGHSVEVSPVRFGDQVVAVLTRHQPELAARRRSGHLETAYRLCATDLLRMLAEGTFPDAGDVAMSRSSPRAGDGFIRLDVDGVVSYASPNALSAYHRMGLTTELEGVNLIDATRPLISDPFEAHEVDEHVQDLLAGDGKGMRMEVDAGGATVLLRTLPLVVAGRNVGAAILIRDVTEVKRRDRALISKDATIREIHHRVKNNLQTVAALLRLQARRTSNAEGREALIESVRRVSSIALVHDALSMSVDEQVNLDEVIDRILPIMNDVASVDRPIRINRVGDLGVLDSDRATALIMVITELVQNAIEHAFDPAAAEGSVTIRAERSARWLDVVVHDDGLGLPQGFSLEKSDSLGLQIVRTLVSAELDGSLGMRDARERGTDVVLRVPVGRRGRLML

In turn, `Nc1nc2c(ncn2[C@@H]2O[C@@H]3CO[P@](=O)(O)O[C@H]4[C@@H](O)[C@H](n5cnc6c(=O)[nH]c(N)nc65)O[C@@H]4CO[P@](=O)(O)O[C@H]3[C@H]2O)c(=O)[nH]1` [c-di-GMP] registered a Kd of 326 ± 107 nM.
